Source: the Kinase Knowledgebase extract (Sharma et al. 2016)
pIC50: −log10 of the molar value.

Legend:
[1] = target: EGFR (human), P00533 [WT]
[2] = target: EGFR (human), P00533 [Inhibition of EGFR(L858RT/790M) Kinase Activity]
[3] = target: EGFR (human) (UniProt P00533); details: hcc827
Chain of EGFR (human) (P00533 whole entry, looked up): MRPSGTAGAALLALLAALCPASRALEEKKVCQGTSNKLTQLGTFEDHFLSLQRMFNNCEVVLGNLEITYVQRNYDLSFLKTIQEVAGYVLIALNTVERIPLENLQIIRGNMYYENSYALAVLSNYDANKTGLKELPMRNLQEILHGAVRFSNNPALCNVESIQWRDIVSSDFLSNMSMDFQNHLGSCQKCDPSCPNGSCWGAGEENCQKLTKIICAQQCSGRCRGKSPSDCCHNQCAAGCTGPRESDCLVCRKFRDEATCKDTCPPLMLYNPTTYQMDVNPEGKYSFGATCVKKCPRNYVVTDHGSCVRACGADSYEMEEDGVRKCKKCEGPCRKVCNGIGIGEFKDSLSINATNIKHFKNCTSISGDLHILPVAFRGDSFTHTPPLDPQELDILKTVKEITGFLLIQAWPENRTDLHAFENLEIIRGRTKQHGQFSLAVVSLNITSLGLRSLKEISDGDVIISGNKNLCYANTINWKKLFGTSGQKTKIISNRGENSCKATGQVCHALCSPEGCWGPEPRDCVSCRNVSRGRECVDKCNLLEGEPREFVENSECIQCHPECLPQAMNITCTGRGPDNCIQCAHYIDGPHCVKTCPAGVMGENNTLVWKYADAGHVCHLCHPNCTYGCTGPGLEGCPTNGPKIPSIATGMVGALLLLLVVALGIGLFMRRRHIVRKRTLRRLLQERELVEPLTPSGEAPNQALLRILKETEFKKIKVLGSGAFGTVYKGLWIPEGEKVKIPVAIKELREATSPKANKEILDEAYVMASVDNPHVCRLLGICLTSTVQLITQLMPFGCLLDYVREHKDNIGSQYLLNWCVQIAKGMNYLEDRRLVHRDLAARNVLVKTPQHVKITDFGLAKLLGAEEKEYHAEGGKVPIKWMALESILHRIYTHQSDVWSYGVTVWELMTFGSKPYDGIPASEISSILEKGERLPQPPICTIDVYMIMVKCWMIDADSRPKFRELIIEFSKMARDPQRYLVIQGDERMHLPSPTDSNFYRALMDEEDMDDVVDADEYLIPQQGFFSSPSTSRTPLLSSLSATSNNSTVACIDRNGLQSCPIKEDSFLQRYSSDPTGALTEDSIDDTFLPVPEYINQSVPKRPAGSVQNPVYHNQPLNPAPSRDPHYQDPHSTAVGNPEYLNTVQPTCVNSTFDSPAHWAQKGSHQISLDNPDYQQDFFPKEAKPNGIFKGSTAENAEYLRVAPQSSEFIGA

Chain of EGFR (human), P00533 [WT] (P00533 whole entry, looked up): as above
Chain of EGFR (human), P00533 [Inhibition of EGFR(L858RT/790M) Kinase Activity] (P00533 whole entry, looked up, change not shown): as the sequence (P00533 whole entry, looked up) above

C=CC(=O)Nc1cccc(-c2c(-c3ccccc3)oc3ncnc(N[C@H](COC(=O)C=C)c4ccccc4)c23)c1
pIC50 [1]: 6.05 to 7.00 | pIC50 [2]: 6.30 to 8.00

C[C@@H](Nc1ncnc2sc3c(c12)CCN(C(=O)/C=C/CN(C)CCO)C3)c1ccccc1
pIC50 [1]: > 7.23 | pIC50 [3]: 7.00 to 9.00

CC#CC(=O)Nc1cccc(-c2c(-c3ccccc3)oc3ncnc(N[C@H](COC)c4ccccc4)c23)c1
pIC50 [1]: 6.05 to 7.00

OC[C@@H](Nc1ncnc2sc3c(c12)CCCC3)c1ccccc1
pIC50 [1]: 6.05 to 7.00 | pIC50 [3]: 6.52 to 7.00

CC[C@@H](Nc1ncnc2sc3c(c12)CCN(C(=O)/C=C/CN(CC)CC)C3)c1ccccc1
pIC50 [1]: > 7.23 | pIC50 [2]: 5.60 to 6.30 | pIC50 [3]: 7.00 to 9.00

CC(=O)Nc1ccc(-c2c(-c3ccccc3)oc3ncnc(N[C@H](CO)c4ccccc4)c23)cc1
pIC50 [1]: 7.00 to 7.22 | pIC50 [3]: 6.52 to 7.00

CN(C)C/C=C/C(=O)N1CCc2c(sc3ncnc(N[C@H](CO[Si](C)(C)C(C)(C)C)c4ccccc4)c23)C1
pIC50 [1]: 7.00 to 7.22 | pIC50 [3]: 6.00 to 6.52

COc1ccc(-c2oc3ncnc(N[C@H](CO)c4ccccc4)c3c2-c2ccc(OC)cc2)cc1
pIC50 [1]: 7.00 to 7.22

C=CC(=O)N1CCc2c(sc3ncnc(N[C@H](CC)c4ccccc4)c23)C1
pIC50 [1]: > 7.23 | pIC50 [2]: 5.60 to 6.30 | pIC50 [3]: 7.00 to 9.00

C=CC(=O)N1CCc2c(sc3ncnc(N[C@H](C)c4ccccc4)c23)C1
pIC50 [1]: > 7.23 | pIC50 [2]: 5.60 to 6.30 | pIC50 [3]: 7.00 to 9.00

CN(C)C/C=C/C(=O)N1CCc2c(sc3ncnc(N[C@H](COCc4ccccc4F)c4ccccc4)c23)C1
pIC50 [1]: > 7.23 | pIC50 [2]: 5.60 to 6.30 | pIC50 [3]: 7.00 to 9.00

C=CC(=O)N1CCc2c(sc3ncnc(N[C@H](COCc4cccc(C)c4)c4ccccc4)c23)C1
pIC50 [1]: > 7.23 | pIC50 [2]: 6.30 to 8.00 | pIC50 [3]: 7.00 to 9.00

O=C(O)[C@@H](Nc1ncnc2oc(-c3ccccc3)c(Br)c12)c1ccccc1
pIC50 [1]: > 7.23

C=CC(=O)Nc1cccc(-c2c(-c3ccccc3)oc3ncnc(N[C@H](C)c4ccccc4)c23)c1
pIC50 [1]: 6.05 to 7.00 | pIC50 [2]: 5.60 to 6.30 | pIC50 [3]: 7.00 to 9.00

C=CS(=O)(=O)N1CCc2c(sc3ncnc(N[C@H](CO)c4ccccc4)c23)C1
pIC50 [1]: 7.00 to 7.22 | pIC50 [2]: 5.60 to 6.30 | pIC50 [3]: 6.52 to 7.00

CC#CC(=O)Nc1cccc(-c2c(-c3ccccc3)oc3ncnc(N[C@H](CO)c4ccccc4)c23)c1
pIC50 [1]: > 7.23 | pIC50 [2]: 5.60 to 6.30 | pIC50 [3]: 7.00 to 9.00

CN(C)C/C=C/C(=O)N1CCc2c(sc3ncnc(N[C@H](COCc4ccc(F)cc4)c4ccccc4)c23)C1
pIC50 [1]: > 7.23 | pIC50 [3]: 7.00 to 9.00

CC(=O)OC/C=C/C(=O)N1CCc2c(sc3ncnc(N[C@H](C)c4ccccc4)c23)C1
pIC50 [1]: > 7.23 | pIC50 [3]: 7.00 to 9.00

C[C@@H](Nc1ncnc2sc3c(c12)CCN(C(=O)/C=C/CN(C)C)C3)c1ccccc1
pIC50 [1]: > 7.23 | pIC50 [2]: 5.60 to 6.30 | pIC50 [3]: 7.00 to 9.00

CN(C)C/C=C/C(=O)N1CCc2c(sc3ncnc(Nc4ccc(F)c(Cl)c4)c23)C1
pIC50 [1]: > 7.23 | pIC50 [2]: 6.30 to 8.00 | pIC50 [3]: 7.00 to 9.00

C=CC(=O)N1CCc2c(sc3ncnc(N[C@H](CO)Cc4ccccc4)c23)C1
pIC50 [1]: > 7.23 | pIC50 [2]: 5.60 to 6.30 | pIC50 [3]: 6.00 to 6.52

COC(=O)[C@@H](Nc1ncnc2oc(-c3ccccc3)c(-c3ccccc3)c12)c1ccccc1
pIC50 [3]: 6.00 to 6.52

CCN(CC)C/C=C/C(=O)N1CCc2c(sc3ncnc(N[C@H](CCO)c4ccccc4)c23)C1
pIC50 [1]: > 7.23

CN(C)C/C=C/C(=O)N1CCc2c(sc3ncnc(N[C@H](CO)Cc4ccccc4)c23)C1
pIC50 [1]: 6.05 to 7.00 | pIC50 [3]: 7.00 to 9.00

CC[C@@H](Nc1ncnc2sc3c(c12)CCCC3)c1ccccc1
pIC50 [1]: 6.05 to 7.00 | pIC50 [3]: 6.00 to 6.52

CN(C)C/C=C/C(=O)N1CCc2c(sc3ncnc(N[C@H](CO)c4ccccc4)c23)C1
pIC50 [1]: > 7.23 | pIC50 [2]: 6.30 to 8.00 | pIC50 [3]: 7.00 to 9.00

CN(C)C/C=C/C(=O)N1CCc2c(sc3ncnc(N[C@H](COCc4ccccc4)c4ccccc4)c23)C1
pIC50 [1]: > 7.23 | pIC50 [2]: 5.60 to 6.30 | pIC50 [3]: 7.00 to 9.00

C=CC(=O)Nc1ccc(-c2c(-c3ccccc3)oc3ncnc(N[C@H](CO)c4ccccc4)c23)cc1
pIC50 [1]: 7.00 to 7.22 | pIC50 [3]: 6.00 to 6.52

CC(=O)OC[C@@H](Nc1ncnc2oc(-c3ccccc3)c(Br)c12)c1ccccc1
pIC50 [3]: 6.00 to 6.52

OC[C@@H](Nc1ncnc2sc(-c3ccccc3)cc12)c1ccccc1
pIC50 [1]: 6.05 to 7.00

CNC/C=C/C(=O)N1CCc2c(sc3ncnc(N[C@H](C)c4ccccc4)c23)C1
pIC50 [1]: > 7.23 | pIC50 [2]: 5.60 to 6.30 | pIC50 [3]: 7.00 to 9.00

OC[C@@H](Nc1ncnc2oc(-c3ccccc3)c(-c3ccccc3)c12)c1ccccc1
pIC50 [1]: 6.05 to 7.00 | pIC50 [3]: 6.00 to 6.52

C=CC(=O)Nc1cccc(-c2c(-c3ccccc3)oc3ncnc(N(C)[C@H](COC)c4ccccc4)c23)c1
pIC50 [1]: 6.05 to 7.00

OC[C@@H](Nc1ncnc2oc(-c3ccccc3)c(-c3ccoc3)c12)c1ccccc1
pIC50 [1]: 6.05 to 7.00 | pIC50 [3]: 6.52 to 7.00

C[C@@H](Nc1ncnc2sc3c(c12)CCN(C(=O)/C=C/CNN1CCCCC1)C3)c1ccccc1
pIC50 [1]: > 7.23 | pIC50 [3]: 7.00 to 9.00

CCOC(=O)[C@@H](Nc1ncnc2oc(-c3ccccc3)c(-c3ccccc3)c12)c1ccccc1
pIC50 [3]: 6.00 to 6.52

C=CC(=O)N1CCc2c(sc3ncnc(N[C@H](COCc4cccc(F)c4)c4ccccc4)c23)C1
pIC50 [1]: > 7.23 | pIC50 [2]: 6.30 to 8.00 | pIC50 [3]: 7.00 to 9.00

COc1cccc(COC[C@@H](Nc2ncnc3sc4c(c23)CCN(C(=O)/C=C/CN(C)C)C4)c2ccccc2)c1
pIC50 [1]: > 7.23 | pIC50 [2]: 5.60 to 6.30 | pIC50 [3]: 7.00 to 9.00

C[C@@H](Nc1ncnc2sc3c(c12)CCN(C(=O)/C=C/CN=[N+]=[N-])C3)c1ccccc1
pIC50 [1]: > 7.23 | pIC50 [3]: 7.00 to 9.00

CC[C@@H](Nc1ncnc2oc(-c3ccccc3)cc12)c1ccccc1
pIC50 [3]: 6.00 to 6.52

Cc1sc2ncnc(N[C@H](CO)c3ccccc3)c2c1C
pIC50 [3]: 6.00 to 6.52

C=CC(=O)Nc1cccc(-c2csc3ncnc(N[C@H](CO)c4ccccc4)c23)c1
pIC50 [1]: > 7.23 | pIC50 [3]: 7.00 to 9.00

CN(C)C/C=C/C(=O)N1CCc2c(sc3ncnc(N[C@H](COCc4cccc(F)c4)c4ccccc4)c23)C1
pIC50 [1]: > 7.23 | pIC50 [2]: 6.30 to 8.00 | pIC50 [3]: 7.00 to 9.00

CCC[C@@H](Nc1ncnc2sc3c(c12)CCN(C(=O)/C=C/CN(C)C)C3)c1ccccc1
pIC50 [1]: > 7.23 | pIC50 [3]: 7.00 to 9.00

C=CC(=O)Nc1ccc(-c2c(-c3ccccc3)oc3ncnc(N[C@H](C)c4ccccc4)c23)cc1
pIC50 [1]: 6.05 to 7.00 | pIC50 [3]: 7.00 to 9.00

CCOC(=O)/C=C/C(=O)N1CCc2c(sc3ncnc(N[C@H](CO)c4ccccc4)c23)C1
pIC50 [3]: 7.00 to 9.00

OC[C@@H](Nc1ncnc2sc3c(c12)CCC3)c1ccccc1
pIC50 [3]: 6.00 to 6.52

CN(C)C/C=C/C(=O)N1CCc2c(sc3ncnc(N[C@H](CCOCc4ccccc4F)c4ccccc4)c23)C1
pIC50 [1]: > 7.23 | pIC50 [3]: 7.00 to 9.00

COc1ccc(-c2c(-c3ccccc3)oc3ncnc(N[C@H](CO)c4ccccc4)c23)cc1
pIC50 [1]: 6.05 to 7.00 | pIC50 [3]: 6.52 to 7.00

CC(=O)OC[C@@H](Nc1ncnc2sc3c(c12)CCN(C(=O)/C=C/CN(C)C)C3)c1ccccc1
pIC50 [1]: > 7.23

OC[C@@H](Nc1ncnc2oc(-c3ccccc3)c(Cl)c12)c1ccccc1
pIC50 [1]: 6.05 to 7.00

COCCN(C)C/C=C/C(=O)N1CCc2c(sc3ncnc(N[C@H](CO)c4ccccc4)c23)C1
pIC50 [1]: > 7.23

CN(C)C/C=C/C(=O)N1CCc2c(sc3ncnc(N[C@H](COCc4ccncc4)c4ccccc4)c23)C1
pIC50 [1]: > 7.23 | pIC50 [3]: 7.00 to 9.00

C[C@@H](Nc1ncnc2sc3c(c12)CCN(C(=O)/C=C/CN(C)C)C3)c1ccc(Br)cc1
pIC50 [1]: > 7.23 | pIC50 [3]: 7.00 to 9.00

OC[C@@H](Nc1ncnc2oc(-c3ccccc3)c(-c3ccco3)c12)c1ccccc1
pIC50 [1]: 6.05 to 7.00 | pIC50 [3]: 6.00 to 6.52

CC(C)NC/C=C/C(=O)N1CCc2c(sc3ncnc(N[C@H](C)c4ccccc4)c23)C1
pIC50 [1]: 6.05 to 7.00 | pIC50 [3]: 7.00 to 9.00

CCN(CC)C/C=C/C(=O)N1CCc2c(sc3ncnc(N[C@H](COC)c4ccccc4)c23)C1
pIC50 [1]: 7.00 to 7.22 | pIC50 [3]: 7.00 to 9.00

OC[C@@H](Nc1ncnc2sc(-c3ccccc3)c(Cl)c12)c1ccccc1
pIC50 [1]: 6.05 to 7.00

C=C(CN(C)C)C(=O)N1CCc2c(sc3ncnc(N[C@H](CO)c4ccccc4)c23)C1
pIC50 [1]: 6.05 to 7.00 | pIC50 [3]: 7.00 to 9.00

C=CC(=O)Nc1ccc(-c2nc3c(N[C@H](CO)c4ccccc4)ncnc3o2)cc1
pIC50 [1]: 6.05 to 7.00

CC(=O)Nc1cccc(-c2c(-c3ccccc3)oc3ncnc(N[C@H](CO)c4ccccc4)c23)c1
pIC50 [1]: 6.05 to 7.00 | pIC50 [3]: 6.52 to 7.00

CCN(C/C=C/C(=O)N1CCc2c(sc3ncnc(N[C@H](C)c4ccccc4)c23)C1)CCO
pIC50 [1]: > 7.23 | pIC50 [3]: 7.00 to 9.00

O=C(O)[C@@H](Nc1ncnc2sc3c(c12)CCCC3)c1ccccc1
pIC50 [1]: 6.05 to 7.00

COC[C@@H](Nc1ncnc2sc3c(c12)CCN(C(=O)/C=C/CN(C)C)C3)c1ccccc1
pIC50 [1]: > 7.23

CN(C)C/C=C/C(=O)N1CCc2c(sc3ncnc(N[C@H](COCc4cccnc4)c4ccccc4)c23)C1
pIC50 [1]: > 7.23 | pIC50 [3]: 7.00 to 9.00

O=C(O)[C@@H](Nc1ncnc2sc3c(c12)CCC3)c1ccccc1
pIC50 [1]: 6.05 to 7.00

C=CC(=O)Nc1cccc(-c2coc3ncnc(N[C@H](CO)c4ccccc4)c23)c1
pIC50 [1]: 7.00 to 7.22 | pIC50 [3]: 6.00 to 6.52

CN(C)C/C=C/C(=O)N1CCc2c(sc3ncnc(N[C@H](CCO)c4ccccc4)c23)C1
pIC50 [1]: > 7.23 | pIC50 [3]: 7.00 to 9.00

C/C=C/C(=O)N1CCc2c(sc3ncnc(N[C@H](COCc4cccc(F)c4)c4ccccc4)c23)C1
pIC50 [1]: 7.00 to 7.22

O=C(O)[C@@H](Nc1ncnc2sc(-c3ccccc3)cc12)c1ccccc1
pIC50 [1]: 6.05 to 7.00

O=C(O)[C@@H](Nc1ncnc2oc(-c3ccccc3)c(-c3ccccc3)c12)c1ccccc1
pIC50 [1]: > 7.23

CC[C@@H](Nc1ncnc2oc(-c3ccccc3)c(-c3ccccc3)c12)c1ccccc1
pIC50 [3]: 6.00 to 6.52

C=CC(=O)N1CCc2c(sc3ncnc(N[C@H](CO[Si](C)(C)C(C)(C)C)c4ccccc4)c23)C1
pIC50 [1]: 6.05 to 7.00 | pIC50 [3]: 6.00 to 6.52

O=C(O)/C=C\C(=O)N1CCc2c(sc3ncnc(N[C@H](CO)c4ccccc4)c23)C1
pIC50 [1]: 6.05 to 7.00

C=CC(=O)Nc1cccc(-c2cc3c(N[C@H](CO)c4ccccc4)ncnc3s2)c1
pIC50 [1]: > 7.23 | pIC50 [3]: 6.52 to 7.00

C[C@@H](Nc1ncnc2sc3c(c12)CCN(C(=O)/C=C/CNc1ccccc1)C3)c1ccccc1
pIC50 [1]: 6.05 to 7.00 | pIC50 [3]: 6.00 to 6.52
